Results on four compounds are retold here after US11399539B2, “Heterocyclic compound and harmful arthropod controlling agent containing same” (Sumitomo Chemical Company, Limited, priority 2016, dated 2022).

The structures appear in SMILES notation.

This experiment has as its system cabbage aphids (Brevicoryne brassicae). Nature of the experiment: Test Example 8 and Comparative Test: spray on cabbage seedling infested with cabbage aphids. Type of experiment: in vivo. To be noted: Comparative Test according to Test example 8.
In the case of `CCS(=O)(=O)c1cc(C(F)(F)F)cnc1-n1ccc(C(F)(F)F)cc1=O` [A-48], the “Controlling value at 500 ppm (%)” value is on record as 93%.
On to `O=c1cc(C(F)(F)F)ccn1-c1ncc(C(F)(F)F)cc1Cl` [Comparative compound 1], for which the “Controlling value at 500 ppm (%)” value was determined as 7%.
Regarding `CCS(=O)(=O)c1cc(C(F)(F)F)cnc1-n1cnc(C(F)(F)F)cc1=O` [C-33], the “Controlling value at 500 ppm (%)” value turned out to be 77%.
The figure for `O=c1cc(C(F)(F)F)ncn1-c1ncc(C(F)(F)F)cc1Cl` [Comparative compound 2] is 14%.
